Test results published in patent US12240853B2, “Compounds useful in HIV therapy” (GlaxoSmithKline Intellectual Property (No.2) Limited, priority 2019, dated 2025).
Read-outs that look alike come from different tables or passages of the source.

Assay: Example 18 cynomolgus monkey PK study (SC and IM)
Format: in vivo, cynomolgus monkeys
Description: Example 18 referenced herein was made in accordance with Synthesis B. Six male cynomolgus monkeys (+1 spare) were selected from the Testing Facility's colony of non-naïve animals. The animals were assigned to the study based on acceptable health as determined by a Testing Facility veterinarian. Six animals were selected and placed into two groups of three animals each. Fasting of the animals before or after dosing was not required.
[…] […] The animals were manually restrained for dosing and were not sedated. The dose sites were clipped of hair and wiped with alcohol before dosing. All dosing was performed as detailed in the study protocol and was completed without incident.
Blood samples were collected from the study animals as detailed in the sample collection Table 39 below.
Blood samples were collected by venipuncture of a cephalic vein. For PK, blood was transferred to a blood collection tube containing NaF/Na2EDTA anticoagulant, mixed by inversion, and maintained on wet ice until processing. The blood samples were centrifuged at 2200×g for 10 minutes at 5° C. to isolate plasma. The resulting plasma samples were transferred to individual polypropylene tubes in a 96-well plate format and immediately placed on dry ice until storage at nominally −20° C. prior to shipment for analysis.
The PK plasma samples were analyzed approximately every two weeks by the Testing Facility to determine the concentration of Example 18 (prodrug) and parent using an LC-MS/MS Research Grade Assay (RGA-1) with sensitivity to 0.1 ng/mL. Following interim review of sample analysis data, analysis for Example 18 (prodrug) was discontinued after the Day 57 sample collections. The bioanalytical report and sample concentration data are presented in Tables 40 and 41, and mean concentration-time profiles are shown in FIGS. 29 and 30

C#C[C@]1(COC(=O)CCCCCCCCC)O[C@@H](n2cnc3c(N)nc(F)nc32)C[C@@H]1OC(=O)CCCCCCCCC [Example 18, (2R,3S,5R)-5-(6-amino-2-fluoro-9H-purin-9-yl)-2-((decanoyloxy)methyl)-2-ethynyltetrahydrofuran-3-yl Decanoate]
Example 18 plasma concentrations (IM EFdA, Monkey 2001, 43 days): BQL (BQL—Below Quantitation Limit, <0.100 ng/mL) | Example 18 plasma concentrations (IM EFdA, Monkey 2001, 57 days): BQL (BQL—Below Quantitation Limit, <0.100 ng/mL) | EFdA plasma concentrations (IM EFdA, Monkey 2002, 0.021 days): BQL (BQL—Below Quantitation Limit, <0.100 ng/mL) | Example 18 plasma concentrations (IM EFdA, Monkey 2002, 36 days): BQL (BQL—Below Quantitation Limit, <0.100 ng/mL) | Example 18 plasma concentrations (IM EFdA, Monkey 2002, 39 days): BQL (BQL—Below Quantitation Limit, <0.100 ng/mL) | Example 18 plasma concentrations (IM EFdA, Monkey 2002, 46 days): BQL (BQL—Below Quantitation Limit, <0.100 ng/mL) | Example 18 plasma concentrations (IM EFdA, Monkey 2002, 50 days): BQL (BQL—Below Quantitation Limit, <0.100 ng/mL) | Example 18 plasma concentrations (IM EFdA, Monkey 2003, 29 days): BQL (BQL—Below Quantitation Limit, <0.100 ng/mL) | Example 18 plasma concentrations (IM EFdA, Monkey 2003, 53 days): BQL (BQL—Below Quantitation Limit, <0.100 ng/mL) | Example 18 plasma concentrations (IM equivalent of EFdA, Monkey 2001, 25 days): BQL (BQL—Below Quantitation Limit, <0.100 ng/mL) | Example 18 plasma concentrations (IM equivalent of EFdA, Monkey 2001, 32 days): BQL (BQL—Below Quantitation Limit, <0.100 ng/mL) | Example 18 plasma concentrations (IM equivalent of EFdA, Monkey 2001, 39 days): BQL (BQL—Below Quantitation Limit, <0.100 ng/mL) | Example 18 plasma concentrations (IM equivalent of EFdA, Monkey 2001, 53 days): BQL (BQL—Below Quantitation Limit, <0.100 ng/mL) | Example 18 plasma concentrations (IM equivalent of EFdA, Monkey 2002, 32 days): BQL (BQL—Below Quantitation Limit, <0.100 ng/mL) | Example 18 plasma concentrations (IM equivalent of EFdA, Monkey 2002, 57 days): BQL (BQL—Below Quantitation Limit, <0.100 ng/mL) | EFdA plasma concentrations (IM equivalent of EFdA, Monkey 2003, 0.021 days): BQL (BQL—Below Quantitation Limit, <0.100 ng/mL) | Example 18 plasma concentrations (IM equivalent of EFdA, Monkey 2003, 32 days): BQL (BQL—Below Quantitation Limit, <0.100 ng/mL) | Example 18 plasma concentrations (IM equivalent of EFdA, Monkey 2003, 39 days): BQL (BQL—Below Quantitation Limit, <0.100 ng/mL) | Example 18 plasma concentrations (IM equivalent of EFdA, Monkey 2003, 50 days): BQL (BQL—Below Quantitation Limit, <0.100 ng/mL) | Example 18 plasma concentrations (IM equivalent of EFdA, Monkey 2003, 57 days): BQL (BQL—Below Quantitation Limit, <0.100 ng/mL) | Example 18 plasma concentrations (IM, Monkey 2001, 36 days): BQL (BQL—Below Quantitation Limit, <0.100 ng/mL) | Example 18 plasma concentrations (IM, Monkey 2001, 46 days): BQL (BQL—Below Quantitation Limit, <0.100 ng/mL) | Example 18 plasma concentrations (IM, Monkey 2001, 50 days): BQL (BQL—Below Quantitation Limit, <0.100 ng/mL) | Example 18 plasma concentrations (IM, Monkey 2002, 43 days): BQL (BQL—Below Quantitation Limit, <0.100 ng/mL) | Example 18 plasma concentrations (IM, Monkey 2002, 53 days): BQL (BQL—Below Quantitation Limit, <0.100 ng/mL) | Example 18 plasma concentrations (IM, Monkey 2003, 36 days): BQL (BQL—Below Quantitation Limit, <0.100 ng/mL) | Example 18 plasma concentrations (IM, Monkey 2003, 43 days): BQL (BQL—Below Quantitation Limit, <0.100 ng/mL) | Example 18 plasma concentrations (SC EFdA, Monkey 1001, 22 days): BQL (BQL—Below Quantitation Limit, <0.100 ng/mL) | Example 18 plasma concentrations (SC EFdA, Monkey 1001, 29 days): BQL (BQL—Below Quantitation Limit, <0.100 ng/mL) | Example 18 plasma concentrations (SC EFdA, Monkey 1001, 43 days): BQL (BQL—Below Quantitation Limit, <0.100 ng/mL) | Example 18 plasma concentrations (SC EFdA, Monkey 1001, 46 days): BQL (BQL—Below Quantitation Limit, <0.100 ng/mL) | Example 18 plasma concentrations (SC EFdA, Monkey 1001, 53 days): BQL (BQL—Below Quantitation Limit, <0.100 ng/mL) | EFdA plasma concentrations (SC EFdA, Monkey 1002, 0.021 days): BQL (BQL—Below Quantitation Limit, <0.100 ng/mL) | Example 18 plasma concentrations (SC EFdA, Monkey 1002, 29 days): BQL (BQL—Below Quantitation Limit, <0.100 ng/mL) | Example 18 plasma concentrations (SC EFdA, Monkey 1002, 43 days): BQL (BQL—Below Quantitation Limit, <0.100 ng/mL) | Example 18 plasma concentrations (SC equivalent of EFdA, Monkey 1001, 8 days): BQL (BQL—Below Quantitation Limit, <0.100 ng/mL) | Example 18 plasma concentrations (SC equivalent of EFdA, Monkey 1001, 17 days): BQL (BQL—Below Quantitation Limit, <0.100 ng/mL) | Example 18 plasma concentrations (SC equivalent of EFdA, Monkey 1001, 19 days): BQL (BQL—Below Quantitation Limit, <0.100 ng/mL) | Example 18 plasma concentrations (SC equivalent of EFdA, Monkey 1001, 32 days): BQL (BQL—Below Quantitation Limit, <0.100 ng/mL) | Example 18 plasma concentrations (SC equivalent of EFdA, Monkey 1001, 36 days): BQL (BQL—Below Quantitation Limit, <0.100 ng/mL) | Example 18 plasma concentrations (SC equivalent of EFdA, Monkey 1001, 39 days): BQL (BQL—Below Quantitation Limit, <0.100 ng/mL) | Example 18 plasma concentrations (SC equivalent of EFdA, Monkey 1001, 50 days): BQL (BQL—Below Quantitation Limit, <0.100 ng/mL) | EFdA plasma concentrations (SC equivalent of EFdA, Monkey 1002, 0.042 days): BQL (BQL—Below Quantitation Limit, <0.100 ng/mL) | Example 18 plasma concentrations (SC equivalent of EFdA, Monkey 1002, 22 days): BQL (BQL—Below Quantitation Limit, <0.100 ng/mL) | Example 18 plasma concentrations (SC equivalent of EFdA, Monkey 1002, 32 days): BQL (BQL—Below Quantitation Limit, <0.100 ng/mL) | Example 18 plasma concentrations (SC equivalent of EFdA, Monkey 1002, 39 days): BQL (BQL—Below Quantitation Limit, <0.100 ng/mL) | Example 18 plasma concentrations (SC equivalent of EFdA, Monkey 1002, 50 days): BQL (BQL—Below Quantitation Limit, <0.100 ng/mL) | Example 18 plasma concentrations (SC equivalent of EFdA, Monkey 1002, 53 days): BQL (BQL—Below Quantitation Limit, <0.100 ng/mL) | Example 18 plasma concentrations (SC equivalent of EFdA, Monkey 1002, 57 days): BQL (BQL—Below Quantitation Limit, <0.100 ng/mL) | EFdA plasma concentrations (SC equivalent of EFdA, Monkey 1003, 0.021 days): BQL (BQL—Below Quantitation Limit, <0.100 ng/mL) | EFdA plasma concentrations (SC, Mean, 0.021 days): BQL (BQL—Below Quantitation Limit, <0.100 ng/mL) | Example 18 plasma concentrations (SC, Mean, 17 days): BQL (BQL—Below Quantitation Limit, <0.100 ng/mL) | EFdA plasma concentrations (SC, Monkey 1001, 0.021 days): BQL (BQL—Below Quantitation Limit, <0.100 ng/mL) | Example 18 plasma concentrations (SC, Monkey 1001, 25 days): BQL (BQL—Below Quantitation Limit, <0.100 ng/mL) | Example 18 plasma concentrations (SC, Monkey 1001, 57 days): BQL (BQL—Below Quantitation Limit, <0.100 ng/mL) | Example 18 plasma concentrations (SC, Monkey 1002, 17 days): BQL (BQL—Below Quantitation Limit, <0.100 ng/mL) | Example 18 plasma concentrations (SC, Monkey 1002, 19 days): BQL (BQL—Below Quantitation Limit, <0.100 ng/mL) | Example 18 plasma concentrations (SC, Monkey 1002, 25 days): BQL (BQL—Below Quantitation Limit, <0.100 ng/mL) | Example 18 plasma concentrations (SC, Monkey 1002, 36 days): BQL (BQL—Below Quantitation Limit, <0.100 ng/mL) | Example 18 plasma concentrations (SC, Monkey 1002, 46 days): BQL (BQL—Below Quantitation Limit, <0.100 ng/mL) | EFdA plasma concentrations (SC, Monkey 1003, 0.042 days): BQL (BQL—Below Quantitation Limit, <0.100 ng/mL) | Clinical observations and dose site reactions (cynomolgus monkey, single SC or IM injection, 5 mg parent/kg): All animals appeared normal at the time of each observation and no dose site reactions were observed | concentration at 0.021 days (male, cynomolgus monkey, plasma, intramuscular, 20 mg/kg equivalent of EFdA, IM 20 mg/kg equivalent of EFdA, Mean, 0.021 days, read-out: Example 18 plasma concentrations): 11.9 ng/mL | concentration at 0.042 days (male, cynomolgus monkey, plasma, intramuscular, 20 mg/kg equivalent of EFdA, IM 20 mg/kg equivalent of EFdA, Mean, 0.042 days, read-out: Example 18 plasma concentrations): 15 ng/mL | concentration at 0.125 days (male, cynomolgus monkey, plasma, intramuscular, 20 mg/kg equivalent of EFdA, IM 20 mg/kg equivalent of EFdA, Mean, read-out: Example 18 plasma concentrations): 28.5 ng/mL | concentration at 0.208 days (male, cynomolgus monkey, plasma, intramuscular, 20 mg/kg equivalent of EFdA, IM 20 mg/kg equivalent of EFdA, Mean, 0.208 days, read-out: Example 18 plasma concentrations): 28.3 ng/mL | concentration at 0.292 days (male, cynomolgus monkey, plasma, intramuscular, 20 mg/kg equivalent of EFdA, IM 20 mg/kg equivalent of EFdA, Mean, 0.292 days, read-out: Example 18 plasma concentrations): 18.3 ng/mL | concentration at 1 days (male, cynomolgus monkey, plasma, intramuscular, 20 mg/kg equivalent of EFdA, IM 20 mg/kg equivalent of EFdA, Mean, 1 days, read-out: Example 18 plasma concentrations): 4.49 ng/mL | concentration at 2 days (male, cynomolgus monkey, plasma, intramuscular, 20 mg/kg equivalent of EFdA, IM 20 mg/kg equivalent of EFdA, Mean, 2 days, read-out: Example 18 plasma concentrations): 0.52 ng/mL | concentration at 3 days (male, cynomolgus monkey, plasma, intramuscular, 20 mg/kg equivalent of EFdA, IM 20 mg/kg equivalent of EFdA, Mean, 3 days, read-out: Example 18 plasma concentrations): 0.505 ng/mL | concentration at 8 days (male, cynomolgus monkey, plasma, intramuscular, 20 mg/kg equivalent of EFdA, IM 20 mg/kg equivalent of EFdA, Mean, 8 days, read-out: Example 18 plasma concentrations): 0.187 ng/mL | concentration at 10 days (male, cynomolgus monkey, plasma, intramuscular, 20 mg/kg equivalent of EFdA, IM 20 mg/kg equivalent of EFdA, Mean, 10 days, read-out: Example 18 plasma concentrations): 0.173 ng/mL | concentration at 17 days (male, cynomolgus monkey, plasma, intramuscular, 20 mg/kg equivalent of EFdA, IM 20 mg/kg equivalent of EFdA, Mean, 17 days, read-out: Example 18 plasma concentrations): 0.145 ng/mL | concentration at 19 days (male, cynomolgus monkey, plasma, intramuscular, 20 mg/kg equivalent of EFdA, IM 20 mg/kg equivalent of EFdA, Mean, 19 days, read-out: Example 18 plasma concentrations): 0.124 ng/mL | concentration at 22 days (male, cynomolgus monkey, plasma, intramuscular, 20 mg/kg equivalent of EFdA, IM 20 mg/kg equivalent of EFdA, Mean, 22 days, read-out: Example 18 plasma concentrations): 0.13 ng/mL | concentration at 25 days (male, cynomolgus monkey, plasma, intramuscular, 20 mg/kg equivalent of EFdA, IM 20 mg/kg equivalent of EFdA, Mean, 25 days, read-out: Example 18 plasma concentrations): 0.151 ng/mL | concentration at 0.021 days (male, cynomolgus monkey, plasma, intramuscular, 20 mg/kg equivalent of EFdA, IM 20 mg/kg equivalent of EFdA, Monkey 2001, 0.021 days, read-out: Example 18 plasma concentrations): 21.8 ng/mL | concentration at 0.042 days (male, cynomolgus monkey, plasma, intramuscular, 20 mg/kg equivalent of EFdA, IM 20 mg/kg equivalent of EFdA, Monkey 2001, 0.042 days, read-out: Example 18 plasma concentrations): 29.2 ng/mL | concentration at 0.125 days (male, cynomolgus monkey, plasma, intramuscular, 20 mg/kg equivalent of EFdA, IM 20 mg/kg equivalent of EFdA, Monkey 2001, read-out: Example 18 plasma concentrations): 53.7 ng/mL
